# Experimental data taken from the supplement of paper PMC10307832.
# Legend:
# Assay in all cases: relative viability (nuclei count vs DMSO), 5 days (fraction); higher = more cells survive
# 17-AAG + Alpelisib = compound: C=CCNC1=C2C[C@@H](C)C[C@H](OC)[C@H](O)[C@@H](C)/C=C(\C)[C@H](OC(N)=O)[C@@H](OC)/C=C\C=C(/C)C(=O)NC(=CC1=O)C2=O [17-AAG] + Cc1nc(NC(=O)N2CCC[C@H]2C(N)=O)sc1-c1ccnc(C(C)(C)C(F)(F)F)c1 [Alpelisib] (partner 2 µM)
# Procedure, shortened: (§1)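 Relative viability is defined as nuclei in treated wells over nuclei in vehicle wells. Duplicate plates were run and medians reported. Lung cancer cell lines in 1536-well plates were dosed by pin tool one day after seeding, with one drug or with a fixed anchor-drug dose plus five library-drug doses (not always all listed) in √10 steps, and nuclei were counted after 5 days.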
# 17-AAG + AZD7762 = compound: C=CCNC1=C2C[C@@H](C)C[C@H](OC)[C@H](O)[C@@H](C)/C=C(\C)[C@H](OC(N)=O)[C@@H](OC)/C=C\C=C(/C)C(=O)NC(=CC1=O)C2=O [17-AAG] + NC(=O)Nc1cc(-c2cccc(F)c2)sc1C(=O)N[C@H]1CCCNC1 [AZD7762] (partner 0.2 µM)
# Procedure, shortened: as §1
# 17-AAG + Pictilisib = compound: C=CCNC1=C2C[C@@H](C)C[C@H](OC)[C@H](O)[C@@H](C)/C=C(\C)[C@H](OC(N)=O)[C@@H](OC)/C=C\C=C(/C)C(=O)NC(=CC1=O)C2=O [17-AAG] + CS(=O)(=O)N1CCN(Cc2cc3nc(-c4cccc5[nH]ncc45)nc(N4CCOCC4)c3s2)CC1 [Pictilisib] (partner 1 µM)
# Procedure, shortened: as §1
# 17-AAG + Phenformin = compound: C=CCNC1=C2C[C@@H](C)C[C@H](OC)[C@H](O)[C@@H](C)/C=C(\C)[C@H](OC(N)=O)[C@@H](OC)/C=C\C=C(/C)C(=O)NC(=CC1=O)C2=O [17-AAG] + N=C(N)NC(=N)NCCc1ccccc1 [Phenformin] (partner 250 µM)
# Procedure, shortened: as §1
Cell Line,relative viability (17-AAG + Alpelisib; first compound 0.00128 µM),relative viability (17-AAG + Alpelisib; first compound 0.004048 µM),relative viability (17-AAG + Alpelisib; first compound 0.0128 µM),relative viability (17-AAG + Alpelisib; first compound 0.04048 µM),relative viability (17-AAG + Alpelisib; first compound 0.128 µM),relative viability (17-AAG + AZD7762; first compound 0.00128 µM),relative viability (17-AAG + AZD7762; first compound 0.004048 µM),relative viability (17-AAG + AZD7762; first compound 0.0128 µM),relative viability (17-AAG + AZD7762; first compound 0.04048 µM),relative viability (17-AAG + AZD7762; first compound 0.128 µM),relative viability (17-AAG + Pictilisib; first compound 0.00128 µM),relative viability (17-AAG + Pictilisib; first compound 0.004048 µM),relative viability (17-AAG + Pictilisib; first compound 0.0128 µM),relative viability (17-AAG + Pictilisib; first compound 0.04048 µM),relative viability (17-AAG + Pictilisib; first compound 0.128 µM),relative viability (17-AAG + Phenformin; first compound 0.00128 µM),relative viability (17-AAG + Phenformin; first compound 0.004048 µM),relative viability (17-AAG + Phenformin; first compound 0.0128 µM),relative viability (17-AAG + Phenformin; first compound 0.04048 µM),relative viability (17-AAG + Phenformin; first compound 0.128 µM)
NCI-H1703,0.366,0.152,0.141,0.155,0.134,0.114,0.156,0.113,0.109,0.134,0.235,0.181,0.188,0.168,0.141,,,,,
NCI-H2009,1.13,1.19,1.13,0.853,0.366,,,,,,0.744,0.829,0.744,0.277,0.091,0.499,0.43,0.481,0.412,0.128
NCI-H2023,0.582,0.66,0.273,0.0878,0.0906,,,,,,0.292,0.173,0.0917,0.0989,0.0852,0.416,0.226,0.0687,0.0792,0.0691
NCI-H2228,0.781,0.273,0.16,0.19,0.153,,,,,,0.346,0.153,0.128,0.148,0.102,0.337,0.185,0.0958,0.099,0.0688
NCI-H2342,,,,,,0.441,0.739,0.468,0.447,0.359,,,,,,0.562,0.792,0.554,0.398,0.379
SK-LU-1,0.961,0.327,0.188,0.237,0.165,,,,,,0.558,0.374,0.199,0.127,0.141,0.484,0.214,0.119,0.116,0.0908
SK-MES-1,0.884,0.842,0.553,0.144,0.152,,,,,,0.414,0.387,0.139,0.134,0.1,0.697,0.561,0.389,0.202,0.194
SW 900,,,,,,0.661,0.68,0.255,0.11,0.133,,,,,,0.577,0.37,0.13,0.0856,0.0981
SW 1573,0.817,0.716,0.648,0.158,0.109,,,,,,0.549,0.531,0.206,0.19,0.104,0.34,0.257,0.123,0.145,0.1
UMC-11,1.05,0.855,0.658,0.211,0.129,,,,,,0.824,0.809,0.662,0.219,0.143,0.297,0.292,0.249,0.223,0.19
